As usually defined, the CC50 is the concentration giving 50% cytotoxicity. Broadly, the EC50 is the concentration at which the effect is half-maximal.

CC50 and EC50 data for 25 compounds are collected here from patent US8536187B2 (Gilead Sciences, Inc., priority 2008, dated 2013).

Series [1] can be described thus: CC50 assay (CellTiter-Glo) in Huh-7 HCV replicon cells. It is filed as cell-based. Particulars: human. The procedure, abridged: (§1)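 Cytotoxicity (CC50) read by CellTiter-Glo luminescence after 10 min, and antiviral EC50 by luciferase signal after 30 min lysis with substrate, both at room temperature. Preceding step: 3-day exposure of 6000 Huh-7 HCV replicon cells per well to compound dilution series at 37° C, 5% CO2, in 0.5% DMSO.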

Series [2] has as its system HCV replicon in human hepatoma Huh-7 cell line. Description: Anti-HCV replicon assay, EC50 (luciferase luminescence). The class given is cell-based. Particulars: Hepatitis C virus, Huh-7, 72 h. The procedure, abridged: as §1

The compound `CC(C)(C)NS(=O)(=O)c1cc(F)cc(CNc2nc(NC3(C(F)(F)F)CC3)c3nc(-c4ccc(F)nc4)ccc3n2)c1` [Example 78, N-tert-butyl-3-fluoro-5-((6-(6-fluoropyridin-3-yl)-4-(1-(trifluoromethyl)cyclopropyl-amino)pyrido[3,2-d]pyrimidin-2-ylamino)methyl)benzene-sulfonamide] yielded a CC50 at 3 days in series [1] (Table 2, 3 days incubation) of more than 10000 nM. The same compound came in with an EC50 in series [2] of 100 to 250 nM.

As for `COCC#Cc1ccc2nc(NCc3ccc(S(N)(=O)=O)cc3)nc(NCC(F)(F)F)c2n1` [Example 283, 4-((6-(3-methoxyprop-1-ynyl)-4-(2,2,2-trifluoroethylamino)pyrido[3,2-d]pyrimidin-2-ylamino)methyl)benzene-sulfonamide], in series [1] (Table 2, 3 days incubation), the CC50 at 3 days is more than 10000 nM. For the same compound, in series [2], the EC50 is 100 to 250 nM.

In turn, `CS(=O)(=O)c1cccc(-c2ccc3nc(NCc4ccc(-n5cncn5)cc4)nc(O[C@@H]4C[C@@H]5C[C@@H]5C4)c3n2)c1` [Example 194, N-(4-(1H-1,2,4-triazol-1-yl)benzyl)-4-((1S,3r,5R)-bicyclo[3.1.0]hexan-3-yloxy)-6-(3-(methylsulfonyl)phenyl) pyrido[3,2-d]pyrimidin-2-amine] had a CC50 at 3 days in series [1] (Table 2, 3 days incubation) of 1000 to 10000 nM. For the same compound, the EC50 in series [2] is less than 100 nM.

Take `CS(=O)(=O)c1cccc(CNc2nc(NC3(C(F)(F)F)CC3)c3nc(-c4ccc(N5CCNC5=O)cc4)ccc3n2)c1` [Example 111, 1-(4-(2-(3-(methylsulfonyl)benzylamino)-4-(1-(trifluoromethyl)cyclopropyl-amino)pyrido[3,2-d]pyrimidin-6-yl)phenyl)imidazolidin-2-one]: the 50% cytotoxic concentration (CC50) at 3 days in series [1] (Table 2, 3 days incubation) was in the range of 1000 to 10000 nM. For the same compound, the 50% effective concentration (EC50) in series [2] is less than 100 nM.

For `CCOc1ccc(-c2ccc3nc(NCc4ccc(-n5ccnc5)cc4)nc(NCC(F)(F)F)c3n2)cc1S(N)(=O)=O` [Example 262, 5-(2-(4-(1H-imidazol-1-yl)benzylamino)-4-(2,2,2-trifluoroethylamino)pyrido [3,2-d]pyrimidin-6-yl)-2-ethoxybenzenesulfonamide], the CC50 at 3 days in series [1] (Table 2, 3 days incubation) is 1000 to 10000 nM. Moreover, in series [2], the EC50 was less than 100 nM.

In series [1] (Table 2, 3 days incubation), `CS(=O)(=O)c1cc(-c2ccc3nc(NCc4ccc(-n5cncn5)cc4)nc(NCC(F)(F)F)c3n2)ccc1OC(F)F` [Example 175, N^2-(4-(1H-1,2,4-triazol-1-yl)benzyl)-6-(4-(difluoro-methoxy)-3-(methylsulfonyl)phenyl)-N^4-(2,2,2-trifluoroethyl) pyrido[3,2-d]pyrimidine-2,4-diamine] registered a CC50 at 3 days of more than 10000 nM. In addition, the EC50 in series [2] was less than 100 nM.

As to `CC(Nc1nc(NCC(F)(F)F)c2nc(-c3cccc(S(C)(=O)=O)c3)ccc2n1)c1ccc(-n2cncn2)cc1` (centres unmarked) [Example 19, 6-(3-Methanesulfonyl-phenyl)-N2-[1-(4-[1,2,4]triazol-1-yl-phenyl)-ethyl]-N4-(2,2,2-trifluoro-ethyl)-pyrido[3,2-d]pyrimidine-2,4-diamine], the CC50 at 3 days in series [1] (Table 1, 3 days incubation) lay within 10000 to 25000 nM. The compound further showed an EC50 in series [2] of less than 100 nM.

Take `CC(C)(C)Oc1nc(NCc2ccc(-n3cncn3)cc2)nc2ccc(-c3cccc(S(C)(=O)=O)c3)nc12` [Example 197, N-(4-(1H-1,2,4-triazol-1-yl)benzyl)-4-tert-butoxy-6-(3-(methylsulfonyl)phenyl)pyrido [3,2-d]pyrimidin-2-amine]: the CC50 at 3 days in series [1] (Table 2, 3 days incubation) is more than 10000 nM. For the same compound, the EC50 in series [2] was less than 100 nM.

In the case of `c1ncn(-c2ccc(CNc3nc(C4CC4)c4nc(-c5ccc(OC6CC6)nc5)ccc4n3)cc2)n1` [Example 267, N-(4-(1H-1,2,4-triazol-1-yl)benzyl)-6-(6-cyclopropoxy-pyridin-3-yl)-4-cyclopropyl-pyrido[3,2-d]pyrimidin-2-amine], in series [1] (Table 2, 3 days incubation), the CC50 at 3 days was more than 10000 nM. In series [2], this compound came in with an EC50 of 100 to 250 nM.

For the compound `NS(=O)(=O)c1cc(Cl)cc(CNc2nc(NC3(C(F)(F)F)CC3)c3nc(C#CC4CC4)ccc3n2)c1` [Example 91, 3-chloro-5-((6-(2-cyclopropylethynyl)-4-(1-(trifluoromethyl)cyclopropyl-amino)pyrido[3,2-d]pyrimidin-2-ylamino)methyl)benzene-sulfonamide], in series [1] (Table 2, 3 days incubation), the CC50 at 3 days is more than 10000 nM. Also, in series [2], the concentration giving a half-maximal response (EC50) is less than 100 nM.

`COc1ccc(-c2ccc3nc(NCc4cccc(-n5cccn5)c4)nc(NCC(F)(F)F)c3n2)cc1S(C)(=O)=O` [Example 140, N^2-(3-(1H-pyrazol-1-yl)benzyl)-6-(4-methoxy-3-(methylsulfonyl)phenyl)-N^4-(2,2,2-trifluoroethyl)pyrido [3,2-d]pyrimidine-2,4-diamine] registered a CC50 at 3 days in series [1] (Table 2, 3 days incubation) of 1000 to 10000 nM. In addition, in series [2], the EC50 was less than 100 nM.

In turn, `Cc1ccc(-c2ccc3nc(NCc4ccc(-n5cncn5)cc4)nc(NCC(F)(F)F)c3n2)cc1S(C)(=O)=O` [Example 179, N^2-(4-(1H-1,2,4-triazol-1-yl)benzyl)-6-(4-methyl-3-(methylsulfonyl)phenyl)-N^4-(2,2,2-trifluoroethyl)pyrido [3,2-d]pyrimidine-2,4-diamine] had a CC50 at 3 days in series [1] (Table 2, 3 days incubation) of more than 10000 nM. Moreover, the EC50 in series [2] was less than 100 nM.

Compound `Nc1ccc(-c2ccc3nc(NCc4ccc(-n5cncn5)cc4)nc(NC4(C(F)(F)F)CC4)c3n2)cn1` [Example 112, N^2-(4-(1H-1,2,4-triazol-1-yl)benzyl)-6-(6-aminopyridin-3-yl)-N^4-(1-(trifluoromethyl)cyclopropyl)pyrido[3,2-d] pyrimidine-2,4-diamine] returned a CC50 at 3 days in series [1] (Table 2, 3 days incubation) of 1000 to 10000 nM. The compound further returned an EC50 in series [2] of less than 100 nM.

For the compound `CC#Cc1ccc2nc(NCc3cc(Cl)cc(S(N)(=O)=O)c3)nc(OC3(C)CC3)c2n1` [Example 311, 3-chloro-5-((4-(1-methylcyclo-propoxy)-6-(prop-1-ynyl)pyrido [3,2-d]pyrimidin-2-ylamino)methyl)benzenesulfonamide], the CC50 at 3 days in series [1] (Table 2, 3 days incubation) was more than 10000 nM. In series [2], this compound yielded an EC50 of less than 100 nM.

As for `NS(=O)(=O)c1cc(F)cc(CNc2nc(NC3(C(F)(F)F)CC3)c3nc(-c4ccc(F)cc4)ccc3n2)c1` [Example 115, 3-fluoro-5-((6-(4-fluorophenyl)-4-(1-(trifluoromethyl)cyclopropyl-amino)pyrido[3,2-d]pyrimidin-2-ylamino)methyl)benzene-sulfonamide], in series [1] (Table 2, 3 days incubation), the cytotoxic concentration (CC50) at 3 days was 1000 to 10000 nM. In addition, the EC50 in series [2] was less than 100 nM.

Turning to `NS(=O)(=O)c1ccc(CNc2nc(NC3(C(F)(F)F)CC3)c3nc(-c4cccc(C(F)(F)F)c4)ccc3n2)cc1` [Example 80, 4-((4-(1-(trifluoromethyl)cyclopropylamino)-6-(3-(trifluoromethyl)phenyl)pyrido [3,2-d]pyrimidin-2-ylamino)methyl)benzenesulfonamide], in series [1] (Table 2, 3 days incubation), the CC50 at 3 days is 1000 to 10000 nM. This compound showed an EC50 in series [2] of 250 to 2000 nM.

Compound `NS(=O)(=O)c1ccc(CNc2nc(NCC(F)(F)F)c3nc(-c4ccc(OC(F)F)nc4)ccc3n2)cc1` [Example 244, 4-((6-(6-(difluoromethoxy)pyridin-3-yl)-4-(2,2,2-trifluoroethylamino)pyrido [3,2-d]pyrimidin-2-ylamino)methyl)benzene-sulfonamide] came in with a CC50 at 3 days in series [1] (Table 2, 3 days incubation) of more than 10000 nM. The EC50 in series [2] lay in the range of 100 to 250 nM.

Take `COc1ccc(-c2ccc3nc(NCc4ccc(S(N)(=O)=O)cc4)nc(NC4(C#N)CC4)c3n2)cn1` [Example 132, 4-((4-(1-cyanocyclopropylamino)-6-(6-methoxypyridin-3-yl)pyrido[3,2-d]pyrimidin-2-ylamino)methyl)benzene-sulfonamide]: in series [1] (Table 2, 3 days incubation), the CC50 at 3 days was more than 10000 nM. The compound also registered an EC50 in series [2] of less than 100 nM.

`CS(=O)(=O)c1cccc(-c2ccc3nc(NCc4cccc(S(N)(=O)=O)c4)nc(NCC(F)(F)F)c3n2)c1` [Example 14, 3-{[6-(3-Methanesulfonyl-phenyl)-4-(2,2,2-trifluoro-ethylamino)-pyrido[3,2-d]pyrimidin-2-ylamino]-methyl}-benzenesulfonamide] registered a CC50 at 3 days in series [1] (Table 1, 3 days incubation) of 10000 to 25000 nM. The same compound yielded a concentration giving a half-maximal response (EC50) in series [2] of less than 100 nM.

The compound `CS(=O)(=O)c1cccc(-c2ccc3nc(NCc4ccc(S(N)(=O)=O)cc4)nc(NCC(F)(F)F)c3n2)c1` [Example 15, 4-{[6-(3-Methanesulfonyl-phenyl)-4-(2,2,2-trifluoro-ethylamino)-pyrido[3,2-d]pyrimidin-2-ylamino]-methyl}-benzenesulfonamide] had a half-maximal cytotoxic concentration (CC50) at 3 days in series [1] (Table 1, 3 days incubation) of more than 25000 nM. This compound also gave an EC50 in series [2] of less than 100 nM.

For `CCOc1nc(N[C@H](C)c2ccc(S(N)(=O)=O)cc2)nc2ccc(C#CC3CC3)nc12` [Example 316, (R)-4-(1-(6-(2-cyclopropyl-ethynyl)-4-ethoxypyrido [3,2-d]pyrimidin-2-ylamino)ethyl)benzenesulfonamide], in series [1] (Table 2, 3 days incubation), the CC50 at 3 days is more than 10000 nM. Also, the EC50 in series [2] lay in the range of 100 to 250 nM.

For the compound `CS(=O)(=O)Nc1cccc(CNc2nc(NC3(C(F)(F)F)CC3)c3nc(-c4ccc(F)cc4)ccc3n2)c1` [Example 87, N-(3-((6-(4-fluorophenyl)-4-(1-(trifluoromethyl)cyclopropyl-amino)pyrido[3,2-d]pyrimidin-2-ylamino)methyl)phenyl) methanesulfonamide], the half-maximal cytotoxic concentration (CC50) at 3 days in series [1] (Table 2, 3 days incubation) was more than 10000 nM. This compound also registered an EC50 in series [2] of 100 to 250 nM.

As for `CS(=O)(=O)c1cccc(CNc2nc(NC3(C(F)(F)F)CC3)c3nc(-c4ccc(F)cc4C#N)ccc3n2)c1` [Example 104, 2-(2-(3-(methylsulfonyl)benzylamino)-4-(1-(trifluoromethyl)cyclopropyl-amino)pyrido[3,2-d]pyrimidin-6-yl)-5-fluorobenzonitrile], the cytotoxic concentration (CC50) at 3 days in series [1] (Table 2, 3 days incubation) is more than 10000 nM. The compound further came in with an EC50 in series [2] of 100 to 250 nM.

`COc1ccc(-c2ccc3nc(NC(C)C#CC4CC4)nc(NCC(F)(F)F)c3n2)cc1S(N)(=O)=O` (centres unmarked) [Example 239, 5-(2-(4-cyclopropylbut-3-yn-2-ylamino)-4-(2,2,2-trifluoroethylamino)pyrido [3,2-d]pyrimidin-6-yl)-2-methoxybenzenesulfonamide] displayed a CC50 at 3 days in series [1] (Table 2, 3 days incubation) of 1000 to 10000 nM. For the same compound, the EC50 in series [2] is less than 100 nM.

`FC(F)(F)CNc1nc(NCc2ccc(-n3cncn3)cc2)nc2ccc(-c3cnc(OC4CC4)nc3)nc12` [Example 253, N^2-(4-(1H-1,2,4-triazol-1-yl)benzyl)-6-(2-cyclopropoxy-pyrimidin-5-yl)-N^4-(2,2,2-trifluoroethyl)pyrido[3,2-d] pyrimidine-2,4-diamine]: the CC50 at 3 days in series [1] (Table 2, 3 days incubation) is more than 10000 nM. The compound further had an EC50 in series [2] of less than 100 nM.
